In patent US7452870B2, “Drug-eluting stents coated with P2Y12 receptor antagonist compound” (Inspire Pharmaceuticals, Inc., priority 2000, dated 2008):
Structures can show the parent of a compound that is named as a salt.

Columns and labels:
[1] = system: washed platelet (ADP-induced aggregation; P2Y12 receptor); test: ADP-induced platelet aggregation, washed platelet preparation; format: cell-based; conditions: Homo sapiens, inhibition of ADP-induced aggregation, washed platelets, average of at least two separate experiments
Method: Blood was collected from healthy volunteers into syringes containing ⅙ final blood volume of anti-coagulant ACD (65 mM citric acid, 85 mM sodium citrate, 110 mM dextrose) for washed platelet (WP) preparation or into a syringe containing a final concentration of 10 units/mL heparin or 300 μM PPACK for whole blood (WB) assays. The blood collected for whole blood assays was maintained at room temperature and immediately tested as described below. […] These centrifugations and washes were repeated twice following by resuspension in the media described above containing 0.25 U apyrase/mL. Platelet aggregation was measured using the optical mode of a CHRONOLOG® aggregometer (Havertown, Pa.). Five hundred μl of platelet suspension containing 1 mg/mL Fibrinogen were warmed to 37° C. and stirred at 1000 rpm. Indicated concentrations of ADP were added to the sample and aggregation was monitored for 8 minutes. […] For whole blood aggregation, blood was diluted 1:1 with saline and then aggregation was performed in the same manner as described above using the impedance mode of the aggregometer. The potency of agonists and inhibitors of platelet aggregation was calculated from both, the rate of aggregation and the maximal extent of aggregation obtained for each determination by fitting the data to a four-parameter logistic equation using the […]® software package (GraphPad Corp. San Diego, Calif.).
The ability of P2Y12 antagonists to inhibit platelet aggregation is presented in this application as the percent inhibition of the aggregation induced by a maximally effective concentration of ADP.
Data presented are from the average of at least two separate experiments.

P2Y1 = P2Y1 (Homo sapiens, UniProt P47900); test: Calcium mobilization assay, P2Y1; format: cell-based; set-up: key: no response (NR); conditions: activation of P2Y1 receptor;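 further: test compound added first then a maximal dose of the cognate agonist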
P2Y2 = P2Y2 (Homo sapiens, UniProt P41231); test: Calcium mobilization assay, P2Y2; format: cell-based; set-up: key: no response (NR); conditions: activation of P2Y2 receptor;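 further: test compound added first then a maximal dose of the cognate agonist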
P2Y4 = P2Y4 (Homo sapiens, UniProt P51582); test: Calcium mobilization assay, P2Y4; format: cell-based; set-up: key: no response (NR); conditions: activation of P2Y4 receptor;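 further: test compound added first then a maximal dose of the cognate agonist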
P2Y6 = P2Y6 (Homo sapiens, UniProt Q15077); test: Calcium mobilization assay, P2Y6; format: cell-based; set-up: key: no response (NR); conditions: activation of P2Y6 receptor;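 further: test compound added first then a maximal dose of the cognate agonist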
[2] = system: platelet aggregation (platelet rich plasma); test: Ex-vivo ADP-induced platelet aggregation after intravenous administration in mice
Method: In order to evaluate the effects of inhibition of platelet aggregation in-vivo by the compounds described in this invention, experimental protocols similar to those described by Leon et al. (Circulation 103:718-723, 2001) were performed.
Anesthetized mice were injected intravenously with either saline or with different doses of trans-2′,3′-cinnamyl acetal-6N-ethylurea adenosine 5′-monophosphate, bis sodium salt (Compound 41), usually between 1 and 100 μg/kg. Five minutes after the administration of the compound, 700 μL of blood were obtained from each animal. The blood of two animals was combined and immediately processed to obtain platelet rich plasma for the assessment of platelet aggregation stimulated by 1 and 5 μM ADP. Platelet aggregation was measured using optical aggregometry as described in Example 21.
A key characteristic of the compounds described in this invention is the reversible nature of the inhibition of platelet aggregation. The model system described in Example 28 was also used to study the kinetics of in-vivo inhibition of platelet aggregation with selected compounds. Briefly, a maximally effective concentration of test compound was administered intravenously, and blood samples were obtained before and at different times (usually 0, 1, 5, 15 and 30 minutes) after the administration of trans-2′,3′-cinnamyl acetal-6N-ethylurea adenosine 5′-monophosphate, bis sodium salt (Compound 41). Blood samples were processed immediately and aggregation induced by 1 μM and 5 μM ADP was estimated as described in Example 31.

[3] = system: systemic intravascular thromboembolism; test: Thromboembolism-induced mortality (collagen and epinephrine) in mice; format: in vivo; conditions: 25 mg/kg single IV bolus five minutes before 0.3 mg/kg collagen and 60 μg/kg epinephrine
Method: Ten anesthetized mice were treated with vehicle (control) or with a single bolus intravenous administration of test compound (usually between 10 and 25 mg/kg). Five minutes after treatment, the animals were injected with a mixture of 0.3 mg/kg collagen and 60 μg/kg epinephrine. The survival time after the administration of collagen and epinephrine in animals pretreated with saline or 25 mg/kg of the test compound 2′3′-(trans)cinnamyl acetal-6-N-ethylurea AMP (compound 41), are shown using the Kaplan-Meier plot in FIG. 3. Ninety percent of the vehicle-pretreated animals died within 6 minutes after the IV injection of collagen and epinephrine.

[4] = system: whole blood platelet aggregation; test: Ex-vivo whole blood platelet aggregation during and after continuous IV infusion in dogs; set-up: species or system beagle dogs
Method: (§1) Two weeks prior to the study, beagle dogs were implanted with jugular catheters and vascular access ports. Groups of four dogs (two of each sex) were fitted with jackets and connected to ambulatory infusion pumps for drug administration.
(§2) The day of the study, dogs were treated with a continuous infusion of different concentrations of test compound (usually between 0.1 and 1.5 mg/kg/h) for 90 minutes at a rate of 3 mL/kg/h. Approximately 30 minutes and 15 minutes prior to the start of infusion (predose samples), at different times during each infusion period (usually 10, 30, 60, and 90 minutes), and after the termination of the infusion (usually 5, 10, 20, 30, 40, 60, 120, and 240 minutes and 18, 20, 22, and 24 hours), blood was withdrawn from a cephalic vein catheter for the assessment of ex-vivo whole blood platelet aggregation assays and/or for bioanalytical determination of the plasma levels of the test compound. Platelet aggregation was estimated using the impedance mode of a CHRONOLOG® aggregometer as described in Example 24, and the plasma levels of the test compound were analyzed on an API 4000 LC/MS/MS system coupled with an Agilent 1100 series liquid chromatograph.

[5] = Plasma levels of test compound during and after IV infusion in dogs (LC/MS/MS); format: in vivo; conditions: both sexes, beagle, dog, after the end of infusion, one-compartment model analysis, FIG. 5B
Method: as §1, §2
The pharmacological effect of the administration of the test compound correlated closely with the plasma levels of the compound. […]

[6] = system: platelets (ADP-induced aggregation); test: Inhibition of ADP-induced platelet aggregation at 100 μM (FIG. 1); format: cell-based, human; conditions: 100 μM compound
Method: Blood was collected from healthy volunteers into syringes containing ⅙ final blood volume of anti-coagulant ACD (65 mM citric acid, 85 mM sodium citrate, 110 mM dextrose) for washed platelet (WP) preparation or into a syringe containing a final concentration of 10 units/mL heparin or 300 μM PPACK for whole blood (WB) assays. The blood collected for whole blood assays was maintained at room temperature and immediately tested as described below. The blood collected for WP was centrifuged at 180 g for 15 minutes and the supernatant (platelet rich plasma) was removed. The platelet rich plasma was centrifuged and the platelets were pelleted and resuspended in a buffer consisting of (mM): NaCl (137), KCl (2.7), CaCl2 (2) MgCl2 (1), NaH2PO4 (3), Glucose (5), HEPES (10), pH 7.4, 0.2% BSA. These centrifugations and washes were repeated twice following by resuspension in the media described above containing 0.25 U apyrase/mL. Platelet aggregation was measured using the optical mode of a CHRONOLOG® aggregometer (Havertown, Pa.). Five hundred μl of platelet suspension containing 1 mg/mL Fibrinogen were warmed to 37° C. and stirred at 1000 rpm. Indicated concentrations of ADP were added to the sample and aggregation was monitored for 8 minutes. The effect of the compounds described in this invention were studied following the same protocol with the exception that the inhibitor was incubated for 2-5 minutes prior to the addition of a maximally effective concentration of ADP. For whole blood aggregation, blood was diluted 1:1 with saline and then aggregation was performed in the same manner as described above using the impedance mode of the aggregometer. The potency of agonists and inhibitors of platelet aggregation was calculated from both, the rate of aggregation and the maximal extent of aggregation obtained for each determination by fitting the data to a four-parameter logistic equation using the […]® software package (GraphPad Corp. San Diego, Calif.).
The ability of P2Y12 antagonists to inhibit platelet aggregation is presented in this application as the percent inhibition of the aggregation induced by a maximally effective concentration of ADP. When a broad range of concentrations of P2Y12 antagonist was tested (usually from 1 nM to 100 μM), an IC50 value was also obtained.
Different compounds were tested for their inhibition of ADP-induced aggregation and their IC50 according to the protocols in Example 19; the results are shown in FIG. 1. The bar graphs in the figure illustrate the effect of 100 μM concentration of the compound on ADP-induced platelet aggregation, and the data are expressed as % inhibition of the ADP response.
Where hydrogens are understood to be present, they have been omitted for the sake of simplicity. […]

Chain of P2Y4 (P51582 whole entry, species assumed): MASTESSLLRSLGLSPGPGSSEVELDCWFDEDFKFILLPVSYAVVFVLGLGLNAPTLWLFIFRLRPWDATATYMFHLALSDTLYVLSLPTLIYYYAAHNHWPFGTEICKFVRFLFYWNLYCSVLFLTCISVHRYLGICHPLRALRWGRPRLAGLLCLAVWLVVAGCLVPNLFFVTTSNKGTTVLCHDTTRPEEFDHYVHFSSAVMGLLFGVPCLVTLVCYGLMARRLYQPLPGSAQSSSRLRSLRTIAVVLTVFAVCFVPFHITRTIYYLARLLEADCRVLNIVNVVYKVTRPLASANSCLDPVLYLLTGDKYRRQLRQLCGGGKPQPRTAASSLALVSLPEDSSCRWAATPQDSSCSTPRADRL
Chain of P2Y6 (Q15077 whole entry, species assumed): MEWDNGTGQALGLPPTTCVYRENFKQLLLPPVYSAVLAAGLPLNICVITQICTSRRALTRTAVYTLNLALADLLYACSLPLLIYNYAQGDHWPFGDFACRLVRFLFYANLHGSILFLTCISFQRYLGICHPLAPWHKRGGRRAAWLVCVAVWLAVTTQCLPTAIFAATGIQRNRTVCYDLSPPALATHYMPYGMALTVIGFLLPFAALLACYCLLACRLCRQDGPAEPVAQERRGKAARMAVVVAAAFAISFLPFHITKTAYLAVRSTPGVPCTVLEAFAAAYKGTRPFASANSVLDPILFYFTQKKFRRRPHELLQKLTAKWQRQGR
Chain of P2Y1 (P47900 whole entry): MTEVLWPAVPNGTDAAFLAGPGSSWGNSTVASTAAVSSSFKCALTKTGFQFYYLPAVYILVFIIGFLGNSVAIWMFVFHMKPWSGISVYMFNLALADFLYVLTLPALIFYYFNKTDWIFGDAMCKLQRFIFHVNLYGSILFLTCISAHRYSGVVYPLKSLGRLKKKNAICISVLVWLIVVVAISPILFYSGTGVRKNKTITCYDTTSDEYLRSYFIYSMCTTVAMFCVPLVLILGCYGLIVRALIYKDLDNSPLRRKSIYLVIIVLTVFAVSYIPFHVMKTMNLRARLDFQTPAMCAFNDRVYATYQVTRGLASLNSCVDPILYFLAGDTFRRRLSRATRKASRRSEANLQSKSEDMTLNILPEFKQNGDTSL
Chain of P2Y2 (P41231 whole entry, species assumed): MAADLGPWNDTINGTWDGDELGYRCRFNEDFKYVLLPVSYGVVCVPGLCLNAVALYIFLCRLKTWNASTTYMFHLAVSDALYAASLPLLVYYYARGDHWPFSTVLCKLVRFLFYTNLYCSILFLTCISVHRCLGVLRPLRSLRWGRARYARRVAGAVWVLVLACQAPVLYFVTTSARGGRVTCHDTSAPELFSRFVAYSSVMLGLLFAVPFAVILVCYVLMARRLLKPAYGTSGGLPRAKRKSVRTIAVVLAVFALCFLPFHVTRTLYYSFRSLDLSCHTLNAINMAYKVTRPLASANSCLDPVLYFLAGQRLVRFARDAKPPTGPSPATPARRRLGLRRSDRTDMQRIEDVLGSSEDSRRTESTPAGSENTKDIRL

CCNC(=O)Nc1ncnc2c1ncn2[C@@H]1O[C@H](COP(=O)(O)O)C2O[C@H](/C=C/c3ccccc3)OC21 (stereo in doubt) [Compound 41, Phosphoric acid mono-{6-[6-(3-ethyl-ureido)-purin-9-yl]-2-styryl-tetrahydro-furo[3,4-d][1,3]dioxol-4-ylmethyl} ester bis sodium salt]
IC50 [1]: 13 ± 2 nM
Calcium Mobilization P2Y1 (P2Y1): NR
Calcium Mobilization P2Y2 (P2Y2): NR
Calcium Mobilization P2Y4 (P2Y4): NR
Calcium Mobilization P2Y6 (P2Y6): NR
inhibition of ADP-induced platelet aggregation five minutes after administration ([2]; intravenous maximally effective concentration, 1 μM and 5 μM ADP, 5 minutes): Complete inhibition
aggregation response to ADP by 30 minutes after administration ([2]; intravenous maximally effective concentration, 1 μM and 5 μM ADP, 30 minutes): returned to values similar to those observed in control animals
inhibition of platelet aggregation, dose dependence ([2]; intravenous, blood taken five minutes after administration, 1 and 5 μM ADP): dose-dependent inhibition
mortality resulting from systemic intravascular thromboembolism [3]: 20%
restoration of platelet aggregation following termination of infusion ([4]; after end of IV infusion, FIG. 5A): nearly complete restoration of platelet aggregation within an hour
time at which the pharmacodynamic effect reached steady state ([4]; continuous IV infusion, FIG. 5A (0.3 mg/kg/h)): ≤ 30 min
infusion rate giving the maximal inhibitory effect on platelet aggregation ([4]; continuous intravenous infusion): 0.3 mg/kg/h
inhibition of platelet aggregation, dose dependence ([4]; continuous intravenous infusion for 90 minutes): dose-dependent inhibition
half-life [5]: ~7 min

O=c1ccn([C@@H]2O[C@H](COP(=O)(O)OP(=O)(O)OP(=O)(O)OC[C@@H]3O[C@@H](n4ccc(=O)[nH]c4=O)C(O)[C@@H]3O)[C@H](O)C2O)c(=O)[nH]1 (stereo partly drawn) [Up3U, P^1,P^3-Di(uridine 5′-) triphosphate]
inhibition of ADP-induced aggregation [6]: do not inhibit

Nc1ccn([C@@H]2O[C@H](COP(=O)(O)OP(=O)(O)OP(=O)(O)OP(=O)(O)OC[C@H]3O[C@@H](n4ccc(=O)[nH]c4=O)[C@H](O)[C@@H]3O)[C@@H](O)[C@H]2O)c(=O)n1 [Cp4U, P^1-(cytidine 5′-)-P^4-(uridine 5′-) tetraphosphate]
inhibition of ADP-induced aggregation [6]: do not inhibit

O=c1ccn([C@@H]2O[C@H](COP(=O)(O)OP(=O)(O)OP(=O)(O)OP(=O)(O)OC[C@H]3O[C@@H](n4cnc5c(=O)[nH]cnc54)[C@H](O)[C@@H]3O)[C@@H](O)[C@H]2O)c(=O)[nH]1 [Ip4U]
inhibition of ADP-induced aggregation [6]: do not inhibit

O=c1ccn([C@@H]2O[C@H](COP(=O)(O)OP(=O)(O)OP(=O)(O)OP(=O)(O)OC[C@H]3O[C@@H](n4ccc(=O)[nH]c4=O)[C@H](O)[C@@H]3O)[C@@H](O)[C@H]2O)c(=O)[nH]1 [Up4U]
inhibition of ADP-induced aggregation [6]: do not inhibit
